Source: PMC11104609, “Discovery of allosteric regulators with clinical potential to stabilize alpha-L-iduronidase in mucopolysaccharidosis type I” (PLOS ONE, 2024)

Tests used:
[1] = target: T1, rhIDUA (Aldurazyme) (Homo sapiens, UniProt P35475); assay: IDUA assay in plasma of mice co-administered rhIDUA and GT-01803; type: in vivo, male C57BL/6 mice; conditions: GT-01803 5, 10, 20 mg/kg i.v. + rhIDUA 1.2 mg/kg i.v.; 0.5, 1, 2 h; dose-dependent, significant at 20 mg/kg
T1 sequence (P35475 28-653): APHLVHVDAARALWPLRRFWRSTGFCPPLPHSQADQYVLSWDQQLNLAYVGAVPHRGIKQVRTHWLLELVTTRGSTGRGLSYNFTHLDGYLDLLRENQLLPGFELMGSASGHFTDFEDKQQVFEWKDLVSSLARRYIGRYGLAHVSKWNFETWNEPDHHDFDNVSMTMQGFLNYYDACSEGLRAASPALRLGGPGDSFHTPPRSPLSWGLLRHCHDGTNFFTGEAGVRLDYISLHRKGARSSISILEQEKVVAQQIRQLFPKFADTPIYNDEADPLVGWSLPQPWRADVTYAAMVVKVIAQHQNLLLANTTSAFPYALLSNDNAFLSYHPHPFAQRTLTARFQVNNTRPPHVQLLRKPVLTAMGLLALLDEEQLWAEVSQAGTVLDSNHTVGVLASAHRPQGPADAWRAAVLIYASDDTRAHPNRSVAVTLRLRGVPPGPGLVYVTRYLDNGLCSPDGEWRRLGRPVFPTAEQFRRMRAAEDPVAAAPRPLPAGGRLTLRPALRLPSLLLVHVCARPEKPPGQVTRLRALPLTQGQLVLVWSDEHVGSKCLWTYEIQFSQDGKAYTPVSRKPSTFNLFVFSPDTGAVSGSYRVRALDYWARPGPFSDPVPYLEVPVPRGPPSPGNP
Experimental: Mice studies were performed by Sai Life Sciences (Pune, India). All procedures of the present study were in accordance with the guidelines provided by the Committee for the Purpose of Control and Supervision of Experiments on Animals (CPCSEA) as published in The Gazette of India, December 15, 1998. In addition, prior approval from the Institutional Animal Ethics Committee (IAEC) was obtained before the initiation of the study. Healthy male C57BL/6 mice (8–10 weeks old) weighing between 22 and 25 g were procured (Global, Pune, India). Three to five mice were housed in each cage. Temperature and humidity were maintained at 22 ± 2 °C and 41–63%, respectively, and illumination was controlled to give a sequence of a 12 h light and 12 h dark cycle. In the study’s in-life phase, we provided all mice with cage enrichment to minimize anxiety. We conducted bone marrow sampling under isoflurane anesthesia, maintaining it throughout the entire procedure. […] All procedures were carried out according to our in-house Standard Operating Procedures and monitored by a veterinarian if required. […]
Plasma samples from mice were collected at 0.5, 1 and 2 h after treatment with compound #18 (GT-01803). […] The plate was read at excitation 355 nm and emission 460 nm in TECAN Infinite® M1000 Pro reader (Thermo Fisher Scientific, UK). […]

[2] = Precipitation observed in DSF dose response; type: physicochemical; conditions: DSF buffer 100 mM Hepes, 20 mM MgCl2, pH 7, 1% DMSO
Experimental: The capacity of the compounds to stabilise IDUA was assessed by DSF. The thermal denaturation of purified human native enzyme was monitored in the presence of the extrinsic fluorescent probe SYPRO® Orange (Thermo Fisher Scientific, Waltham, MA, USA), which binds to hydrophobic parts of proteins that become exposed as the protein unfolds. […] Reactions containing 12.5 μL of 1.5 μM rhIDUA protein (purchased from R&D Systems) in 100 mM Hepes, 20 mM MgCl2, pH 7, to a final protein concentration of 0.75 μM with SYPRO Orange 10X, and 12.5 μL of the different compound solutions dissolved in 100% DMSO and diluted into the protein buffer to achieve final concentrations of 1% DMSO. The intensity of SYPRO Orange fluorescence after a systematic increase in temperature was monitored in the Roche LightCycler® 480 II device (Roche Diagnostics). The significance of the melting temperature (Tm) shifts was evaluated based on two criteria: absolute ΔTm shift > 0.5 °C (instrumental criterion) and absolute ΔTm standard deviation ≤ 0.2 (statistical criterion). The thermal shift dose response was performed at various increasing concentrations (from 0.04 to 90 μM) of compound #18 (GT-01803) with rhIDUA (obtained from the Institute of Biotechnology and Biomedicine at the Autonomous University of Barcelona (UAB), Bellaterra, Spain).

- IDUA enzymatic activity levels in plasma [1]: increased
- concentration at which precipitation was observed [2]: 100 µM
SMILES: CCN(CC(=O)Nc1c(Cl)cccc1Cl)Cc1nc2ccsc2c(=O)[nH]1 [GT-01803]
